Laboratory results from the NIST ThermoML archive (doi:10.1021/je900048r).
Where “and” joins values, the source holds several entries; their conditions need not be identical. Equal entries are not always repeated.

What was measured:
[1] = Liquid, Other PVT measurement
[2] = xn = mol fraction of the nth substance listed; conditions: Liquid, Other PVT measurement, x2 = 0

CCCCn1cc[n+](C)c1.F[B-](F)(F)F [1-butyl-3-methylimidazolium tetrafluoroborate]
mass density, [1]
Conditions	100 kPa	200 kPa	600 kPa	1000 kPa	1400 kPa	1800 kPa	2000 kPa
293.15 K	1198 kg/m3	–	–	–	–	–	–
313.15 K	1183 kg/m3	1185 kg/m3	1186 kg/m3	1186 kg/m3	1186 kg/m3	1187 kg/m3	1186.93 kg/m3 and 1187 kg/m3
353.15 K	–	1159 kg/m3	1160 kg/m3	1160 kg/m3	1160 kg/m3	1161 kg/m3	1160.82 kg/m3 and 1161 kg/m3
393.15 K	–	–	1135 kg/m3	1135 kg/m3	1135 kg/m3	1136 kg/m3	1135.92 kg/m3 and 1136 kg/m3
433.15 K	–	–	–	1112 kg/m3	1112 kg/m3	1113 kg/m3	1113 kg/m3
473.15 K	–	–	–	–	–	1086 kg/m3	1087 kg/m3

CC#N [acetonitrile]
mass density [kg/m3], [1]
Conditions	200 kPa	600 kPa	1000 kPa	1400 kPa	1800 kPa	2000 kPa
313.15 K	755	755	756	756	757	757
353.15 K	710	711	711	711	712	713
393.15 K	–	664	664	665	666	666
433.15 K	–	–	611	612	614	614
473.15 K	–	–	–	–	550	552

CC#N [acetonitrile] + CCCCn1cc[n+](C)c1.F[B-](F)(F)F
mass density [kg/m3], [2]
Conditions	200 kPa	600 kPa	1000 kPa	1400 kPa	1800 kPa	2000 kPa
313.15 K	755	755	756	756	757	757
353.15 K	710	711	711	711	712	713
393.15 K	–	664	664	665	666	666
433.15 K	–	–	611	612	614	614
473.15 K	–	–	–	–	550	552

CCO [ethanol]
mass density [kg/m3], [1]
Conditions	200 kPa	600 kPa	1000 kPa	1400 kPa	1800 kPa	2000 kPa
313.15 K	770	770	770	771	771	772
353.15 K	734	734	735	735	736	738
393.15 K	–	691	692	693	694	694
433.15 K	–	–	–	638	639	639

CCO [ethanol] + CCCCn1cc[n+](C)c1.F[B-](F)(F)F
mass density [kg/m3], [2]
Conditions	200 kPa	600 kPa	1000 kPa	1400 kPa	1800 kPa	2000 kPa
313.15 K	770	770	770	771	771	772
353.15 K	734	734	735	735	736	738
393.15 K	–	691	692	693	694	694
433.15 K	–	–	–	638	639	639

O [water]
[1]
Conditions	mass density [kg/m3]
313.15 K, 200 kPa	993
313.15 K, 2000 kPa	995
353.15 K, 200 kPa	975
353.15 K, 400 kPa	975
373.15 K, 800 kPa	963
373.15 K, 1200 kPa	963
393.15 K, 200 kPa	949
393.15 K, 400 kPa	949
393.15 K, 1600 kPa	950
393.15 K, 2000 kPa	950
433.15 K, 800 kPa	912
433.15 K, 1200 kPa	912
473.15 K, 1600 kPa	871
473.15 K, 2000 kPa	871
